Data: patent US5078986A, “Method for enhancing magnetic resonance imaging using an image altering agent containing an excess of chelating agent” (Mallinckrodt Medical, Inc., priority 1990, dated 1992)
“Also recorded” adds a separate entry of the source. Like-named read-outs stand apart in the source and are kept apart here.

Key:
[1] = system: mice; test: Acute intravenous toxicity in mice (Example 4); settings: i.v.; for Average Change in Body Wt. of Survivors: 7 days; for LD50: 7-day observation
Experimental: In addition, the cardiotoxic effects of single bolus intracoronary arterial injections of 4, 8, 16 or 32 mg MnCl2 were evaluated in the isolated perfused rabbit heart (IPRH).
The aqueous vehicle for the suspension of negatively charged liposomes consisted of 0.9% NaCl buffered with 0.003M sodium phosphate, pH 7.4. The lipid concentration was 50 μmol/ml.
A total of 60 mice, 30 males (body weight range of 20-33.5 g) and 30 females (body weight range of 19.1-29.7 g) were used. Fifty of the mice were Swiss ICR, CD-1, obtained from Charles River and ten were Swiss CF-1 obtained from Sasco (Omaha, Nebr.).
The four test substances were administered via the lateral tail vein of the mouse at a rate of 1 ml/min with the following doses given.

[2] = system: isolated perfused rabbit heart
[3] = Biodistribution of 54Mn radioactivity in rats (Example 5); assay type: in vivo, Sprague-Dawley rat
Description: A total of forty Sprague-Dawley rats (20 male, 217-295 g; 20 female, 151-208 g; Charles River) were used. Drinking water was provided ad libitum. The animals, 2 males and 2 females per group, were selected randomly from their cages and were identified with indelible ink numbers at tail bases before test substance administration.
Rats were divided into 10 groups consisting of 2 male and 2 female rats per group. […] Immediately after dosing, rats were housed in individual metabolism cages. Ground Purina Laboratory Chow and water were supplied ad libitum to animals sacrificed at 24 and 48 hr after treatment. Rats from both ^54 NmNa2 EDTA and ^54 Mn-L treatment groups were sacrificed by cervical dislocation at 0.5, 2, 4, 24 and 48 hr after treatment, and the following samples were obtained: injection site, blood, liver, lung, spleen, heart, kidneys, salivary gland (submaxillary), brain, bone with marrow, muscle and fat. Urine samples were obtained from animals sacrificed at all intervals of 2 hr or more after injection and fecal samples were obtained from animals sacrificed at 24 and 48 hr after treatment. […] The entire organ weights were determined for the remaining tissues.
Levels of radioactivity in the biological specimens and aliquots of the injected test substances were determined using a gamma scintillation spectrometer (Model 1085, Nuclear Chicago Corp., Des Plaines, Ill.). Results were calculated on a percent dose/organ (or fluid) and a percent dose/g (or ml) basis using an HP-85 desk top computer (Hewlett Packard, Fort Collins, Colo.).
Kinetic data for the elimination of radioactivity from liver, spleen, kidneys, heart and bone with marrow were curve fitted by the peeling and least-square methods, to mono or bi-exponential equations: [formula] Where Ct=% dose/organ in tissue at time t.
Ai=Concentration at time 0 of the line described by each first order term.
Ki=Elimination rate constant for each first-order term.
The half-life (t 1/2) for each elimination phase was calculated as 0.693/Ki. The square of the correlation coefficient (r^2) for each elimination phase was calculated as an indication of variability.

[4] = 32 mg, 0-15 S, only 1 heart, all others had VF

[Cl][Mn][Cl] [MnCl2, manganese(II)chloride]
Cumulative 7-Day Mortalities/Number Dosed ([1]; female, 25 mg/kg): 1/5 | Average Change in Body Wt. of Survivors ([1]; female, 25 mg/kg): 2.7 g | Cumulative 7-Day Mortalities/Number Dosed ([1]; female, 31.25 mg/kg): 4/5 | Average Change in Body Wt. of Survivors ([1]; female, 31.25 mg/kg): 3.5 g | Cumulative 7-Day Mortalities/Number Dosed ([1]; female, 37.5 mg/kg): 4/5 | Average Change in Body Wt. of Survivors ([1]; female, 37.5 mg/kg): 3.6 g | Acute intravenous toxicity (in words) [1]: high degree of acute toxicity | Cause of death [1]: cardiac arrest the probable cause of death | Convulsions [1]: Transient convulsions, of moderate severity; also recorded: convulsions the primary pharmacotoxic sign | Time of the one delayed death after dosing [1]: 4 days | LD50 ([1]; 10080 min): 28 mg/kg | LD50 ([1]; listed as 1, 10080 min): 28.0 mg/kg | LD50 expressed as Mn(II) ([1]; mmol/kg of Mn(II), 10080 min): 0.22 mmol/kg | Cumulative 7-Day Mortalities/Number Dosed ([1]; male, 25 mg/kg): 3/5 | Average Change in Body Wt. of Survivors ([1]; male, 25 mg/kg): 1.2 g | Cumulative 7-Day Mortalities/Number Dosed ([1]; male, 31.25 mg/kg): 2/5 | Average Change in Body Wt. of Survivors ([1]; male, 31.25 mg/kg): 4.6 g | Cumulative 7-Day Mortalities/Number Dosed ([1]; male, 37.5 mg/kg): 4/5 | Average Change in Body Wt. of Survivors ([1]; male, 37.5 mg/kg): 3.4 g | Incidence of Ventricular Fibrillation (VF) ([2]; 4 mg): 0/6 | Mean % Change in Contractile Force (CF) ([2]; 4 mg, 0-15 S): -5% | Mean % Change in Heart Rate (HR) ([2]; 4 mg, 0-15 S): -2% | Mean % Change in Contractile Force (CF) ([2]; 4 mg, 15-30 S): -28% | Mean % Change in Heart Rate (HR) ([2]; 4 mg, 15-30 S): -2% | Mean % Change in Contractile Force (CF) ([2]; 4 mg, 1 min): -12% | Mean % Change in Heart Rate (HR) ([2]; 4 mg, 1 min): -4% | Mean % Change in Contractile Force (CF) ([2]; 4 mg, 2 min): +5% | Mean % Change in Heart Rate (HR) ([2]; 4 mg, 2 min): -2% | Incidence of Ventricular Fibrillation (VF) ([2]; 8 mg): 0/6 | Mean % Change in Contractile Force (CF) ([2]; 8 mg, 0-15 S): -74% | Mean % Change in Heart Rate (HR) ([2]; 8 mg, 0-15 S): -8% | Mean % Change in Contractile Force (CF) ([2]; 8 mg, 15-30 S): -38% | Mean % Change in Heart Rate (HR) ([2]; 8 mg, 15-30 S): -7% | Mean % Change in Contractile Force (CF) ([2]; 8 mg, 1 min): -17% | Mean % Change in Heart Rate (HR) ([2]; 8 mg, 1 min): -7% | Mean % Change in Contractile Force (CF) ([2]; 8 mg, 2 min): +2% | Mean % Change in Heart Rate (HR) ([2]; 8 mg, 2 min): -6% | Incidence of Ventricular Fibrillation (VF) ([2]; 16 mg): 2/6 | Mean % Change in Contractile Force (CF) ([2]; 16 mg, 0-15 S): -92% | Mean % Change in Heart Rate (HR) ([2]; 16 mg, 0-15 S): -31% | Mean % Change in Contractile Force (CF) ([2]; 16 mg, 15-30 S): -61% | Mean % Change in Heart Rate (HR) ([2]; 16 mg, 15-30 S): -14% | Mean % Change in Contractile Force (CF) ([2]; 16 mg, 1 min): -37% | Mean % Change in Heart Rate (HR) ([2]; 16 mg, 1 min): -14% | Mean % Change in Contractile Force (CF) ([2]; 16 mg, 2 min): -1% | Mean % Change in Heart Rate (HR) ([2]; 16 mg, 2 min): -11% | Premature ventricular contractions ([2]; 16 mg, hearts which did not fibrillate): two of the four hearts which did not fibrillate had premature ventricular contractions | Incidence of Ventricular Fibrillation (VF) ([2]; 32 mg): 5/6 | Mean % Change in Contractile Force (CF) [2, 4]: -100% | Mean % Change in Heart Rate (HR) [2, 4]: -100% | Mean % Change in Contractile Force (CF) ([2]; 32 mg, 15-30 S): -64% | Mean % Change in Heart Rate (HR) ([2]; 32 mg, 15-30 S): -17% | Mean % Change in Contractile Force (CF) ([2]; 32 mg, 1 min): -33% | Mean % Change in Heart Rate (HR) ([2]; 32 mg, 1 min): -17% | Mean % Change in Contractile Force (CF) ([2]; 32 mg, 2 min): +2% | Mean % Change in Heart Rate (HR) ([2]; 32 mg, 2 min): -14% | A-V conduction block ([2]; 32 mg, the single heart which failed to fibrillate): complete A-V conduction block with ventricular standstill | Incidence of arrhythmias (in words) ([2]; 4-32 mg intracoronary): dose-related incidence of arrhythmias | Period of maximal CF and HR effects after injection ([2]; 4-32 mg intracoronary): 0 to 15 s | Arrhythmias at the lower two doses ([2]; 4 and 8 mg): No arrhythmias were observed | Time to return to control or stabilization at new baseline ([2]; CF and HR): two | PR and QRS intervals ([2]; ECG): dose-related increases in PR and QRS intervals | Reversion of VF ([2]; exception: a 32 mg dose): did revert spontaneously to normal sinus rhythm in each instance but one

O=C([O-])CN(CCN(CC(=O)[O-])CC(=O)[O-])CC(=O)[O-].[54Mn+2].[Na+].[Na+] [^54 MnNa2 EDTA]
Radioactivity in fat (in words) ([3]; 2 of 4 rats at 0.5, 2 and 4 hr): Unusually high levels of radioactivity | Localization of remaining radioactivity ([3]; after 48 hr): primarily localized in the bone and marrow | Urinary excretion at later time intervals ([3]; after the initial 2 hr): no additional urinary excretion of radioactivity was observed | Blood clearance at 2 hr (in words) ([3]; by 2 hr after treatment): almost completely cleared from the blood | Blood clearance (in words) ([3]; rat, i.v.): rapidly cleared from the blood | Bone and marrow half-life ([3]; rat, i.v.): > 100 h | Distribution, percent dose/organ (in words) ([3]; rat, i.v.): distributed primarily to the liver, bone with marrow, muscle and kidneys | Fraction associated with rapid first phase hepatic elimination ([3]; rat, i.v.): Approximately 92% | Fraction associated with rapid first phase renal elimination ([3]; rat, i.v.): Approximately 81% | Heart half-life, monophasic elimination ([3]; rat, i.v.): approximately 8 hr | Hepatic t 1/2, initial rapid elimination ([3]; rat, i.v.): < 1 h | Hepatic t 1/2, secondary slow elimination phase ([3]; rat, i.v.): > 17 h | Renal t 1/2, initial rapid elimination ([3]; rat, i.v.): < 1 h | Renal t 1/2, secondary slow elimination phase ([3]; rat, i.v.): > 17 h | Spleen half-life, monophasic elimination ([3]; rat, i.v.): ~ 2 hr | Dose eliminated in the urine ([3]; within 2 hr after treatment): > 50 % of the dose | Total dose excreted in the feces ([3]; within 48 hr after treatment): 31%
